These results are taken from patent US7538102B2, “Compounds for the treatment of Hepatitis C” (Bristol-Myers Squibb Company, priority 2007, dated 2009).

Molecules are shown by their SMILES. Like-named read-outs stand apart in the source and are kept apart here.

In one assay the target is T1, HCV NS5B (Hepatitis C virus genotype 1b, UniProt Q9WMX2).
T1 construct: The protein was expressed with an 18 amino acid C-terminal truncation to enhance the solubility; made in house; host or cells: E. coli BL21(DE3)
T1 sequence (Q9WMX2 2420-2992): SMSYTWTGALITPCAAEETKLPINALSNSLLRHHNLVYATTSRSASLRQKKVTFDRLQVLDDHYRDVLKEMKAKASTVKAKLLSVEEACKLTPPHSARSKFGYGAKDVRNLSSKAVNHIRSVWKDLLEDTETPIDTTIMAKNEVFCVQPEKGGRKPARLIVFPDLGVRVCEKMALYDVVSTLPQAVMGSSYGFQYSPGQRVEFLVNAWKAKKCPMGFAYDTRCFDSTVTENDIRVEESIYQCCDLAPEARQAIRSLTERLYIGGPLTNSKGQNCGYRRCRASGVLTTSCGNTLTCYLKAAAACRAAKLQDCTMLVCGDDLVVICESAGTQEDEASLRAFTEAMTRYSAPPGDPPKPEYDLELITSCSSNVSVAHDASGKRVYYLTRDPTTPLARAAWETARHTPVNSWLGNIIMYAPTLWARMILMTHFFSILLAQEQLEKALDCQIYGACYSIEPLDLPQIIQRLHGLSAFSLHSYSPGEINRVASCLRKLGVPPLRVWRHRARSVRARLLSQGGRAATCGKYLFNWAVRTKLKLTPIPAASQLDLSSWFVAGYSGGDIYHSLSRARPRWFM
The experiment in a line: HCV NS5B RdRp enzyme assay (standard or modified). In kind it is biochemical. The protocol:
HCV NS5B RdRp cloning, expression, and purification. The cDNA encoding the NS5B protein of HCV, genotype 1b, was cloned into the pET21a expression vector. The protein was expressed with an 18 amino acid C-terminal truncation to enhance the solubility. The E. coli competent cell line BL21(DE3) was used for expression of the protein. Cultures were grown at 37° C. for ˜4 hours until the cultures reached an optical density of 2.0 at 600 nm. The cultures were cooled to 20° C. and induced with 1 mM IPTG. Fresh ampicillin was added to a final concentration of 50 μg/ml and the cells were grown overnight at 20° C.
Cell pellets (3 L) were lysed for purification to yield 15-24 mgs of purified NS5B. The lysis buffer consisted of 20 mM Tris-HCl, pH 7.4, 500 mM NaCl, 0.5% triton X-100, 1 mM DTT, 1mM EDTA, 20% glycerol, 0.5 mg/ml lysozyme, 10 mM MgCl2, 15 ug/ml deoxyribonuclease I, and Complete TM protease inhibitor tablets (Roche). After addition of the lysis buffer, frozen cell pellets were resuspended using a tissue homogenizer. To reduce the viscosity of the sample, aliquots of the lysate were sonicated on ice using a microtip attached to a Branson sonicator. The sonicated lysate was centrifuged at 100,000×g for 1 hr at 4° C. and filtered through a 0.2 μm filter unit (Corning).
The protein was purified using two sequential chromatography steps: Heparin sepharose CL-6B and polyU sepharose 4B (Pharmacia). The chromatography buffers were identical to the lysis buffer but contained no lysozyme, deoxyribonuclease I, MgCl2 or protease inhibitor and the NaCl concentration of the buffer was adjusted according to the requirements for charging the protein onto the column. Each column was eluted with a NaCl gradient which varied in length from 5-50 column volumes depending on the column type. After the final chromatography step, the resulting purity of the enzyme is >90% based on SDS-PAGE analysis. The enzyme was aliquoted and stored at −80° C.
Standard HCV NS5B RdRp enzyme assay. HCV RdRp genotype 1b assays were run in a final volume of 60 μl in 96 well plates (Corning 3600). The assay buffer is composed of 20 mM Hepes, pH 7.5, 2.5 mM KCl, 2.5 mM MgCl2, 1 mM DTT, 1.6 U RNAse inhibitor (Promega N2515), 0.01 mg/ml BSA (Sigma B6917), and 2% glycerol. All compounds were serially diluted (3-fold) in DMSO and diluted further in water such that the final concentration of DMSO in the assay was 2%. HCV RdRp genotype 1b enzyme was used at a final concentration of 28 nM. A polyA template was used at 6 nM, and a biotinylated oligo-dT12 primer was used at 180 nM final concentration. Template was obtained commercially (Amersham 27-4110). Biotinylated primer was prepared by Sigma Genosys. 3H-UTP was used at 0.6 μCi (0.29 μM total UTP). Reactions were initiated by the addition of enzyme, incubated at 30° C. for 60 min, and stopped by adding 25 μl of 50 mM EDTA containing SPA beads (4 μg/pl, Amersham RPNQ 0007). Plates were read on a Packard Top Count NXT after >1 hr incubation at room temperature.
Modified HCV NS5B RdRp enzyme assay. A modified enzyme assay was performed essentially as described for the standard enzyme assay except for the following: The biotinylated oligo dT12 primer was precaptured on streptavidin-coated SPA beads by mixing primer and beads in assay buffer and incubating at room temperature for one hour. Unbound primer was removed after centrifugation. The primer-bound beads were resuspended in 20 mM Hepes buffer, pH 7.5 and used in the assay at final concentrations of 20 nM primer and 0.67 μg/μl beads. Order of addition in the assay: enzyme (1.75 nM) was added to diluted compound followed by the addition of a mixture of template (0.36 nM), 3H-UTP (0.6 μCi, 0.29 μM), and primer-bound beads, to initiate the reaction; concentrations given are final. Reactions were allowed to proceed for 4 hours at 30° C.
IC50 values for compounds were determined using seven different [I]. […]

The subject of the next assay is HCV replicon. Put plainly: HCV replicon FRET / luciferase assay. The format is cell-based. The following applies: Hepatitis C virus. The protocol: FRET Assay Preparation. The HCV FRET screening assay was performed in 96-well cell culture plates. The FRET peptide (Anaspec, Inc.) (Taliani et al., Anal. Biochem. 1996, 240, 60-67) contains a fluorescence donor, EDANS, near one end of the peptide and an acceptor, DABCYL, near the other end. The fluorescence of the peptide is quenched by […] resonance energy transfer (RET) between the donor and the acceptor, but as the NS3 protease cleaves the peptide the products are released from RET quenching and the fluorescence of the donor becomes apparent. The assay reagent was made as follows: 5× cell Luciferase cell culture lysis reagent from Promega (#E153A) diluted to 1× with dH2O, NaCl added to 150 mM final, the FRET peptide diluted to 20 μM final from a 2 mM stock.
To prepare plates, HCV replicon cells, with or without a Renilla luciferase reporter gene, were trypsinized and plated in a 96-well plate with titrated test compounds added in columns 3 through 12; columns 1 and 2 contained a control compound (HCV control inhibitor), and the bottom row contained cells with DMSO only. The plates were then placed in a CO2 incubator at 37° C.
Assays. Subsequent to addition of the test compounds described above (FRET Assay Preparation), at various times the plate was removed and Alamar blue solution (Trek Diagnostics, #00-100) was added to measure cellular toxicity. After reading in a Cytoflour 4000 instrument (PE Biosystems), plates were rinsed with PBS and then used for FRET assay by the addition of 30 ul of the FRET peptide assay reagent described above (FRET Assay Preparation) per well. The plate was then placed into the Cytoflour 4000 instrument which had been set to 340 excite/490 emission, automatic mode for up to 20 cycles and the plate read in a kinetic mode. Typically, the signal to noise using an endpoint analysis after the reads was at least three-fold. Alternatively, after Alamar blue reading, plates were rinsed with PBS, then used for luciferase assay using the Promega Dual-Glo Luciferase Assay System or the Promega EnduRen Live Cell Substrate assay.
Compound analysis was performed by quantification of the relative HCV replicon inhibition and the relative cytotoxicity values. To calculate cytoxicity values, the average Alamar Blue fluorescence signals from the control wells were set as 100% non-toxic. The individual signals in each of the compound test wells were then divided by the average control signal and multiplied by 100% to determine […]. To calculate the HCV replicon inhibition values, an average background value was obtained from the two wells containing the highest amount of HCV control inhibitor at the end of the assay period. These numbers were similar to those obtained from naive Huh-7 cells. The background numbers were then subtracted from the average signal obtained from the control wells and this number was used as 100% activity. The individual signals in each of the compound test wells were then divided by the averaged control values after background subtraction and multiplied by 100% to determine percent activity. EC50 values were calculated as the concentration which caused a 50% reduction in FRET or luciferase activity. The two numbers generated for the compound plate, percent cytoxicity and percent activity, were used to determine compounds of interest for further analysis.
(Replicon systems follow genome replication, usually without infectious particles.)

The mark [1] stands for this setting: HCV NS5B RdRp genotype 1b, standard or modified enzyme assay not specified, read-out: IC50.
The mark [2] stands for this setting: HCV replicon cells, 50% reduction in FRET or luciferase activity, read-out: EC50.

Regarding `COc1ccc2c(c1)C1CC1(C(=O)N1CCCN(CCCN3CCOCC3)CC1)Cn1c-2c(C2CCCCC2)c2ccc(C(=O)NS(=O)(=O)C(C)C)cc21` (stereo not shown), the half-maximal inhibitory concentration (IC50) at HCV NS5B (setting [1]) fell in the range of 3 to 1000 nM.
Regarding `COc1ccc2c(c1)C=C(C(=O)N1CCCN(CCCN3CCOCC3)CC1)Cn1c-2c(C2CCCCC2)c2ccc(C(=O)NS(=O)(=O)C3CC3)cc21`, the IC50 at HCV NS5B (setting [1]) was 3 to 1000 nM.
With `COc1ccc2c(c1)C1CC1(C(=O)NC1CC3CCC(C1)N3C)Cn1c-2c(C2CCCCC2)c2ccc(C(=O)NS(=O)(=O)N(C)C)cc21` (stereo not shown), the EC50 in the assay on HCV replicon lay within 3 to 1000 nM. On HCV NS5B, this compound returned an IC50 of 3 to 1000 nM.
`COc1ccc2c(c1)C1CC1(C(=O)N[C@@H]1CC3CCN1CC3)Cn1c-2c(C2CCCCC2)c2ccc(C(=O)NS(=O)(=O)N(C)C)cc21` (stereo partly shown) registered a half-maximal effective concentration (EC50) with HCV replicon of 3 to 1000 nM. The half-inhibitory concentration (IC50) against HCV NS5B lay within 3 to 1000 nM.
`COc1ccc2c(c1)C1CC1(C(=O)N(C)C1CC3CCC1N3C)Cn1c-2c(C2CCCCC2)c2ccc(C(=O)NS(=O)(=O)N(C)C)cc21` (stereo not shown) came in with an EC50 in the assay with HCV replicon of 3 to 1000 nM. Moreover, the IC50 against HCV NS5B was in the range of 3 to 1000 nM.
With `COc1ccc2c(c1)C1CC1(C(=O)N1CCN(CC(=O)N3CCCC3)CC1)Cn1c-2c(C2CCCCC2)c2ccc(C(=O)NS(=O)(=O)C(C)C)cc21` (stereo not shown), the EC50 with HCV replicon (setting [2]) fell in the range of 3 to 1000 nM. In addition, at HCV NS5B (setting [1]), the 50% inhibitory concentration (IC50) was in the range of 3 to 1000 nM.
For `COc1ccc2c(c1)C1CC1(C(=O)N1CCN(Cc3ccccc3)C[C@H]1C)Cn1c-2c(C2CCCCC2)c2ccc(C(=O)NS(C)(=O)=O)cc21` (stereo partly shown), the EC50 in the assay on HCV replicon (setting [2]) was 3 to 1000 nM. At HCV NS5B (setting [1]), the IC50 lay in the range of 3 to 1000 nM.
Take `COc1ccc2c(c1)C1CC1(C(=O)N1CCN(C(=O)OC(C)(C)C)C[C@H]1c1ccccc1)Cn1c-2c(C2CCCCC2)c2ccc(C(=O)NS(C)(=O)=O)cc21` (stereo partly shown): the EC50 in the assay with HCV replicon (setting [2]) fell in the range of 3 to 1000 nM. On HCV NS5B (setting [1]), the IC50 lay within 3 to 1000 nM.
As for `COc1ccc2c(c1)C1CC1(C(=O)N1CCN(C)CC1c1ccccc1)Cn1c-2c(C2CCCCC2)c2ccc(C(=O)NS(=O)(=O)N(C)C)cc21` (stereo not shown) [drawing 46], the IC50 at HCV NS5B (setting [1]) was in the range of 3 to 1000 nM.
On the same count and under the same terms, then `COc1ccc2c(c1)C1CC1(C(=O)N1CCN(C)CC1c1ccccc1)Cn1c-2c(C2CCCCC2)c2ccc(C(=O)NS(=O)(=O)C(C)C)cc21` (stereo not shown) [drawing 56], with 3 to 1000 nM.
In the case of `COc1ccc2c(c1)C1CC1(C(=O)N1CCN(C)CC1c1ccccc1)Cn1c-2c(C2CCCCC2)c2ccc(C(=O)NS(=O)(=O)N(C)C)cc21` (stereo not shown) [drawing 64], at HCV NS5B (setting [1]), the IC50 lay in the range of 3 to 1000 nM.
As for `COc1ccc2c(c1)C1CC1(C(=O)N1CCN(C)CC1c1ccccc1)Cn1c-2c(C2CCCCC2)c2ccc(C(=O)NS(=O)(=O)N(C)C)cc21` (stereo not shown) [drawing 65], the IC50 on HCV NS5B (setting [1]) was in the range of 3 to 1000 nM.
For `COc1ccc2c(c1)C1C[C@]1(C(=O)N1CCN(C)CC1c1ccccc1)Cn1c-2c(C2CCCCC2)c2ccc(C(=O)NS(=O)(=O)C(C)C)cc21` (stereo partly shown) [drawing 79], the half-inhibitory concentration (IC50) on HCV NS5B (setting [1]) was in the range of 3 to 1000 nM.

Broadly, the IC50 is the concentration that gives 50% inhibition. One may read the EC50 as the concentration that produces a half-maximal response.
